Measurements published in the supplement of paper PMC10307832.

Columns and labels:
Test in all cases: relative viability (nuclei count vs DMSO), 5 days (fraction); higher = more cells survive
COR-L23 = system: COR-L23
How it was run: (§1)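 Relative viability is defined as nuclei in treated wells over nuclei in vehicle wells. Duplicate plates were run and medians reported. Lung cancer cell lines in 1536-well plates were dosed by pin tool one day after seeding, with one drug or with a fixed anchor-drug dose plus five library-drug doses (not always all listed) in √10 steps, and nuclei were counted after 5 days.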

NCI-H727 = system: NCI-H727
How it was run: as §1

HCC-366 = system: HCC-366
How it was run: as §1

NCI-H2087 = system: NCI-H2087
How it was run: as §1

HCC-827 = system: HCC-827
How it was run: as §1

NCI-H1993 = system: NCI-H1993
How it was run: as §1

SK-MES-1 = system: SK-MES-1
How it was run: as §1

BEN = system: BEN
How it was run: as §1

HCC-44 = system: HCC-44
How it was run: as §1

NCI-H2126 = system: NCI-H2126
How it was run: as §1

PC-14 = system: PC-14
How it was run: as §1

CAL-12T = system: CAL-12T
How it was run: as §1

HOP-62 = system: HOP-62
How it was run: as §1

HARA = system: HARA
How it was run: as §1

HCC-15 = system: HCC-15
How it was run: as §1

NCI-H2170 = system: NCI-H2170
How it was run: as §1

COR-L 105 = system: COR-L 105
How it was run: as §1

PC-3 [JPC-3] = system: PC-3 [JPC-3]
How it was run: as §1

LU99A = system: LU99A
How it was run: as §1

LXF-289 = system: LXF-289
How it was run: as §1

LCLC-97TM1 = system: LCLC-97TM1
How it was run: as §1

LC-2-ad = system: LC-2-ad
How it was run: as §1

NCI-H2009 = system: NCI-H2009
How it was run: as §1

O=c1[nH]c2ccccc2n1C1CCN(CCCC(c2ccc(F)cc2)c2ccc(F)cc2)CC1 [Pimozide] + Cc1nc(NC(=O)N2CCC[C@H]2C(N)=O)sc1-c1ccnc(C(C)(C)C(F)(F)F)c1 [Alpelisib] (partner 2 µM)
relative viability (COR-L23; first compound 0.08 µM): 0.783
relative viability (COR-L23; first compound 0.253 µM): 0.862
relative viability (COR-L23; first compound 0.8 µM): 0.763
relative viability (COR-L23; first compound 2.53 µM): 0.74
relative viability (COR-L23; first compound 8 µM): 0.695
relative viability (NCI-H727; first compound 0.08 µM): 0.569
relative viability (NCI-H727; first compound 0.253 µM): 0.582
relative viability (NCI-H727; first compound 0.8 µM): 0.729
relative viability (NCI-H727; first compound 2.53 µM): 0.547
relative viability (NCI-H727; first compound 8 µM): 0.519
relative viability (HCC-366; first compound 0.08 µM): 0.354
relative viability (HCC-366; first compound 0.253 µM): 0.381
relative viability (HCC-366; first compound 0.8 µM): 0.406
relative viability (HCC-366; first compound 2.53 µM): 0.425
relative viability (HCC-366; first compound 8 µM): 0.518
relative viability (NCI-H2087; first compound 0.08 µM): 0.847
relative viability (NCI-H2087; first compound 0.253 µM): 1.1
relative viability (NCI-H2087; first compound 0.8 µM): 1.01
relative viability (NCI-H2087; first compound 2.53 µM): 0.975
relative viability (NCI-H2087; first compound 8 µM): 0.89
relative viability (HCC-827; first compound 0.253 µM): 0.92
relative viability (HCC-827; first compound 0.8 µM): 0.956
relative viability (HCC-827; first compound 2.53 µM): 0.95
relative viability (HCC-827; first compound 8 µM): 1
relative viability (NCI-H1993; first compound 0.08 µM): 0.707
relative viability (NCI-H1993; first compound 0.253 µM): 0.648
relative viability (NCI-H1993; first compound 0.8 µM): 0.716
relative viability (NCI-H1993; first compound 2.53 µM): 0.734
relative viability (NCI-H1993; first compound 8 µM): 0.669
relative viability (SK-MES-1; first compound 0.08 µM): 0.809
relative viability (SK-MES-1; first compound 0.253 µM): 0.966
relative viability (SK-MES-1; first compound 0.8 µM): 0.874
relative viability (SK-MES-1; first compound 2.53 µM): 0.837
relative viability (SK-MES-1; first compound 8 µM): 0.842
relative viability (BEN; first compound 0.08 µM): 1.08
relative viability (BEN; first compound 0.253 µM): 1.09
relative viability (BEN; first compound 0.8 µM): 0.961
relative viability (BEN; first compound 2.53 µM): 0.937
relative viability (BEN; first compound 8 µM): 1.06
relative viability (HCC-44; first compound 0.08 µM): 0.856
relative viability (HCC-44; first compound 0.253 µM): 0.751
relative viability (HCC-44; first compound 0.8 µM): 0.802
relative viability (HCC-44; first compound 2.53 µM): 0.736
relative viability (HCC-44; first compound 8 µM): 0.677
relative viability (NCI-H2126; first compound 0.08 µM): 0.756
relative viability (NCI-H2126; first compound 0.253 µM): 0.734
relative viability (NCI-H2126; first compound 0.8 µM): 0.729
relative viability (NCI-H2126; first compound 2.53 µM): 0.758
relative viability (NCI-H2126; first compound 8 µM): 0.757
relative viability (PC-14; first compound 0.08 µM): 0.606
relative viability (PC-14; first compound 0.253 µM): 0.911
relative viability (PC-14; first compound 0.8 µM): 0.928
relative viability (PC-14; first compound 2.53 µM): 1.05
relative viability (PC-14; first compound 8 µM): 0.955
relative viability (CAL-12T; first compound 0.08 µM): 1.15
relative viability (CAL-12T; first compound 0.253 µM): 1.07
relative viability (CAL-12T; first compound 0.8 µM): 1.02
relative viability (CAL-12T; first compound 2.53 µM): 1.32
relative viability (CAL-12T; first compound 8 µM): 0.923
relative viability (HOP-62; first compound 0.08 µM): 1.2
relative viability (HOP-62; first compound 0.253 µM): 0.783
relative viability (HOP-62; first compound 2.53 µM): 0.904
relative viability (HOP-62; first compound 8 µM): 0.794
relative viability (HARA; first compound 0.08 µM): 0.718
relative viability (HARA; first compound 0.253 µM): 0.829
relative viability (HARA; first compound 0.8 µM): 0.565
relative viability (HARA; first compound 2.53 µM): 0.675
relative viability (HARA; first compound 8 µM): 0.728
relative viability (HCC-15; first compound 0.08 µM): 0.913
relative viability (HCC-15; first compound 0.253 µM): 0.91
relative viability (HCC-15; first compound 0.8 µM): 0.832
relative viability (HCC-15; first compound 2.53 µM): 0.782
relative viability (HCC-15; first compound 8 µM): 0.769
relative viability (NCI-H2170; first compound 0.08 µM): 0.753
relative viability (NCI-H2170; first compound 0.253 µM): 0.792
relative viability (NCI-H2170; first compound 0.8 µM): 0.822
relative viability (NCI-H2170; first compound 2.53 µM): 0.74
relative viability (NCI-H2170; first compound 8 µM): 0.714
relative viability (COR-L 105; first compound 0.253 µM): 0.854
relative viability (COR-L 105; first compound 0.8 µM): 0.872
relative viability (COR-L 105; first compound 2.53 µM): 0.802
relative viability (COR-L 105; first compound 8 µM): 0.608
relative viability (PC-3 [JPC-3]; first compound 0.253 µM): 0.964
relative viability (PC-3 [JPC-3]; first compound 0.8 µM): 0.978
relative viability (PC-3 [JPC-3]; first compound 2.53 µM): 0.961
relative viability (PC-3 [JPC-3]; first compound 8 µM): 0.96
relative viability (LU99A; first compound 0.08 µM): 0.397
relative viability (LU99A; first compound 0.253 µM): 0.424
relative viability (LU99A; first compound 0.8 µM): 0.42
relative viability (LU99A; first compound 2.53 µM): 0.484
relative viability (LU99A; first compound 8 µM): 0.477
relative viability (LXF-289; first compound 0.08 µM): 0.97
relative viability (LXF-289; first compound 0.253 µM): 0.955
relative viability (LXF-289; first compound 0.8 µM): 1.01
relative viability (LXF-289; first compound 2.53 µM): 1.02
relative viability (LXF-289; first compound 8 µM): 0.945
relative viability (LCLC-97TM1; first compound 0.08 µM): 0.28
relative viability (LCLC-97TM1; first compound 0.253 µM): 0.239
relative viability (LCLC-97TM1; first compound 0.8 µM): 0.207
relative viability (LCLC-97TM1; first compound 2.53 µM): 0.224
relative viability (LCLC-97TM1; first compound 8 µM): 0.271
relative viability (LC-2-ad; first compound 0.08 µM): 0.762
relative viability (LC-2-ad; first compound 0.253 µM): 0.847
relative viability (LC-2-ad; first compound 0.8 µM): 0.934
relative viability (LC-2-ad; first compound 2.53 µM): 0.879
relative viability (LC-2-ad; first compound 8 µM): 0.776
relative viability (NCI-H2009; first compound 0.08 µM): 1.16
relative viability (NCI-H2009; first compound 0.253 µM): 1.15
relative viability (NCI-H2009; first compound 0.8 µM): 1.14
relative viability (NCI-H2009; first compound 2.53 µM): 1.23
relative viability (NCI-H2009; first compound 8 µM): 1.05
